What is called IC50 is the midpoint of a concentration-inhibition curve.

The values below come from patent US5869486A, “Fused pyrimidines and pyriazines as pharmaceutical compounds” (Ono Pharmaceutical Co., Ltd., priority 1995, dated 1999).

The first test concerns the target cGMP-PDE (Homo sapiens, UniProt O76074). Briefly: Inhibitory effect on cGMP-PDE. The class given is biochemical. The conditions noted are these: PDE IC isolated from human platelets; substrate 3H-cGMP; tested as 2HCl salt (2, 2(3)), CH3SO3H salt (2(5), 2(7), 5, 6(1)), free base (4, 7, 8).
On to `c1ccc(CNc2nc(-n3ccnc3)nc3c2SCCC3)cc1` [Example 2(3)], for which the IC50 amounted to 0.1 µM.

As to `c1ccc(CNc2nc(-n3ccnc3)nc3c2CSCC3)cc1` [Example 2(5)], the IC50 was 0.1 µM.

Turning to `c1cn(-c2nc3c(c(NCc4ccc5c(c4)OCO5)n2)CSCC3)cn1` [Example 2(7)], the concentration for half-maximal inhibition (IC50) was determined as 0.024 µM.

For the molecule `Cc1csc2nc(-n3ccnc3)nc(NCc3ccccc3)c12` [Example 2, 4-benzylamino-2-(1-imidazolyl)-5-methylthieno[2,3-d]pyrimidine dihydrochloric acid], the IC50 turned out to be 0.125 µM.

For `O=C(O)C1CCN(c2nc3c(c(NCc4ccc5c(c4)OCO5)n2)CSCC3)CC1` [Example 4], the IC50 came out at 0.38 µM.

Consider `[O-][S+]1CCCc2nc(-n3ccnc3)nc(NCc3ccccc3)c21` (stereo not shown) [Example 5], for which the IC50 turned out to be 3.2 µM.

Consider `O=S1(=O)CCc2nc(-n3ccnc3)nc(NCc3ccccc3)c2C1` [Example 6(1)], for which the IC50 is 0.38 µM.

Turning to `c1ccc(CNc2cc(-c3ccccc3)nc3ncnn23)cc1` [Example 7], the IC50 turned out to be 3.1 µM.

For `c1ccc(CNc2cc(-c3ccccc3)nn3cnnc23)cc1` [Example 8], the IC50 was determined as 0.94 µM.

A further test deals with TXA2 synthetase. In words: Inhibitory effect on TXA2 synthetase (TXB2 synthesis in A23187-stimulated whole blood). The class given is cell-based, Male Wistar rats. Particulars: at 10 μM; rat heparinized whole blood, Ca ionophore A23187, TXB2 by EIA; CH3SO3H salt. On the procedure:
Male Wistar rats were starved overnight. Five hundreds microliter of heparinized (10 U/mL) whole blood was collected from abdominal aorta using polyethylene syringe (needle: 22 or 26 G). The blood freshly drawn from animal was preincubated with 5 μL of test compound at 37° C. Five minutes later, 2.5 μL of 6 mM of Ca ionophore A23187 (final concentration of 30 μM) was added into tube, and incubation mixture was further incubated for 15 min. The reaction was terminated by centrifugation of tubes at 12,000 rpm for 2 min. TXB2 content in the supernatant was determined by EIA as follows.
One milliliter of 0.5M glycine-HCl buffer (pH 3.2) was added to 100 μL of sample. The samples were mixed well and centrifuged at 1,700 G for 10 min. at 4° C. The extracted supernatant was applied to a SEP-PAK (registered Trade Mark) C18 cartridge (Waters Assoc.). After washing with 10 mL of distilled water followed by 10 mL each of 15% ethanol and petroleum ether, the sample was eluted with 3 mL of ethyl acetate. The ethyl acetate fraction was evaporated to dryness under gentle N2 stream and the residue was dissolved in EIA buffer (final volume of 1 mL) following the addition of 300 μL of 0.01M NaHCO3 --NaOH buffer (pH 10.0). EIA for TXB2 was carried out according to a legend attached to the kit (Chyman Chemical Co., Inc.). Overall recovery of TXB2 in this extraction procedure was 90%. […]
With `c1cn(-c2nc3c(c(NCc4ccc5c(c4)OCO5)n2)CSCC3)cn1` [Example 2(7)], the “Inhibitory activity on TXA2 synthetase” value amounted to 63%.
